Test results reported in ChEMBL document CHEMBL3132769, “Fragment growing to retain or alter the selectivity of anchored kinase hinge-binding fragments” (Medchemcomm, 2014).

Experiments:
[1] = biological target: MAP/microtubule affinity-regulating kinase 3 (Homo sapiens) (UniProt P27448); test: Inhibition of human full length c-TAK1 expressed in Escherichia coli cell assessed as substrate phosphorylation using fluorescence-labelled peptides as substrate at 8 uM after 90 mins by microfluidic peptide phosphorylation assay
[2] = biological target: T1, Serine/threonine-protein kinase Sgk2 (Homo sapiens) (UniProt Q9HBY8); test: Inhibition of human full length SGK2 expressed in baculovirus assessed as substrate phosphorylation using fluorescence-labelled peptides as substrate at 0.06 uM after 90 mins by microfluidic peptide phosphorylation assay
T1 sequence (whole entry): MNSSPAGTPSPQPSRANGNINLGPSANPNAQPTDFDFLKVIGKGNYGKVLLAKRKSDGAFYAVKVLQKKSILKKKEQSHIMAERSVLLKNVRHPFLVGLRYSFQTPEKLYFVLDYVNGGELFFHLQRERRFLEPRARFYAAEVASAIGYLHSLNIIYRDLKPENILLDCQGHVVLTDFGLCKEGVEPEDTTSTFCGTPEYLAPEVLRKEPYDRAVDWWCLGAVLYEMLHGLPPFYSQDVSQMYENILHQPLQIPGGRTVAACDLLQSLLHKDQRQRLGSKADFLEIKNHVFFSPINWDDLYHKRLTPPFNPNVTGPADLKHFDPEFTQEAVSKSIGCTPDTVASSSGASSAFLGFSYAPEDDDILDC

[3] = biological target: T2, Testis-specific serine/threonine-protein kinase 1 (Homo sapiens) (UniProt Q9BXA7); test: Inhibition of human full length TSSK1 expressed in baculovirus assessed as substrate phosphorylation using fluorescence-labelled peptides as substrate at 0.06 uM after 90 mins by microfluidic peptide phosphorylation assay
T2 sequence (whole entry): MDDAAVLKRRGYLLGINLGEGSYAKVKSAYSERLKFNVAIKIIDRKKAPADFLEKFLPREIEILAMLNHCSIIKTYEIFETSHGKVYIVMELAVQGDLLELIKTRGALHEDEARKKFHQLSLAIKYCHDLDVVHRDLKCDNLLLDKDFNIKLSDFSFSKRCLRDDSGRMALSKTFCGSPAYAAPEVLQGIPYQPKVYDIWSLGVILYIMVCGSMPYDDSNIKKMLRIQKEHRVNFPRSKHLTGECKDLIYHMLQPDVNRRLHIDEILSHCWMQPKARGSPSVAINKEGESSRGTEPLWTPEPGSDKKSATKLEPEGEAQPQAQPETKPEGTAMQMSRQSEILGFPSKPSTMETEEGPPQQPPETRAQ

[4] = biological target: Calcium/calmodulin-dependent protein kinase type II subunit beta (Homo sapiens) (UniProt Q13554); test: Inhibition of human CAMK2 beta catalytic domain expressed in baculovirus assessed as substrate phosphorylation using fluorescence-labelled peptides as substrate at 9 uM after 90 mins by microfluidic peptide phosphorylation assay
[5] = biological target: T3, Aurora kinase A (Homo sapiens) (UniProt O14965); test: Inhibition of human full length AurA expressed in baculovirus assessed as substrate phosphorylation using fluorescence-labelled peptides as substrate at 9 uM after 90 mins by microfluidic peptide phosphorylation assay
T3 sequence (whole entry): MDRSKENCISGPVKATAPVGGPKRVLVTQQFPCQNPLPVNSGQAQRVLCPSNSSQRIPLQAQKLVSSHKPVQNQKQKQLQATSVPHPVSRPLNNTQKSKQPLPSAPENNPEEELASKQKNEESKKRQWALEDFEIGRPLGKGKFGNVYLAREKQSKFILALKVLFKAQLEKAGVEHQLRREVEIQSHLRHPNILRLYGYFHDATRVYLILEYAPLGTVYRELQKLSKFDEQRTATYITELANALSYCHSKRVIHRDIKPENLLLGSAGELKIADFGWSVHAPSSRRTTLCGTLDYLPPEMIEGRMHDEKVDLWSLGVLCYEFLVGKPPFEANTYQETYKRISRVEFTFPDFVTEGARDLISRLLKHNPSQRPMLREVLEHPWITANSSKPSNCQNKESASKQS

[6] = biological target: Serine/threonine-protein kinase MARK1 (Homo sapiens) (UniProt Q9P0L2); test: Inhibition of human full length MARK1 expressed in baculovirus assessed as substrate phosphorylation using fluorescence-labelled peptides as substrate at 95 uM after 90 mins by microfluidic peptide phosphorylation assay
[7] = biological target: Insulin-like growth factor 1 receptor (Homo sapiens) (UniProt P08069); test: Inhibition of human IGF1R catalytic domain expressed in baculovirus assessed as substrate phosphorylation using fluorescence-labelled peptides as substrate at 1000 uM after 90 mins by microfluidic peptide phosphorylation assay
[8] = biological target: T1, Serine/threonine-protein kinase Sgk2 (Homo sapiens); test: Inhibition of human full length SGK2 expressed in baculovirus assessed as substrate phosphorylation using fluorescence-labelled peptides as substrate at 1000 uM after 90 mins by microfluidic peptide phosphorylation assay
[9] = biological target: Calcium/calmodulin-dependent protein kinase type II subunit gamma (Homo sapiens) (UniProt Q13555); test: Inhibition of human CAMK2 gamma catalytic domain expressed in baculovirus assessed as substrate phosphorylation using fluorescence-labelled peptides as substrate at 70 uM after 90 mins by microfluidic peptide phosphorylation assay
[10] = biological target: T4, Inhibitor of nuclear factor kappa-B kinase subunit beta (Homo sapiens) (UniProt O14920); test: Inhibition of human full length IKK beta expressed in baculovirus assessed as substrate phosphorylation using fluorescence-labelled peptides as substrate at 70 uM after 90 mins by microfluidic peptide phosphorylation assay
T4 sequence (whole entry): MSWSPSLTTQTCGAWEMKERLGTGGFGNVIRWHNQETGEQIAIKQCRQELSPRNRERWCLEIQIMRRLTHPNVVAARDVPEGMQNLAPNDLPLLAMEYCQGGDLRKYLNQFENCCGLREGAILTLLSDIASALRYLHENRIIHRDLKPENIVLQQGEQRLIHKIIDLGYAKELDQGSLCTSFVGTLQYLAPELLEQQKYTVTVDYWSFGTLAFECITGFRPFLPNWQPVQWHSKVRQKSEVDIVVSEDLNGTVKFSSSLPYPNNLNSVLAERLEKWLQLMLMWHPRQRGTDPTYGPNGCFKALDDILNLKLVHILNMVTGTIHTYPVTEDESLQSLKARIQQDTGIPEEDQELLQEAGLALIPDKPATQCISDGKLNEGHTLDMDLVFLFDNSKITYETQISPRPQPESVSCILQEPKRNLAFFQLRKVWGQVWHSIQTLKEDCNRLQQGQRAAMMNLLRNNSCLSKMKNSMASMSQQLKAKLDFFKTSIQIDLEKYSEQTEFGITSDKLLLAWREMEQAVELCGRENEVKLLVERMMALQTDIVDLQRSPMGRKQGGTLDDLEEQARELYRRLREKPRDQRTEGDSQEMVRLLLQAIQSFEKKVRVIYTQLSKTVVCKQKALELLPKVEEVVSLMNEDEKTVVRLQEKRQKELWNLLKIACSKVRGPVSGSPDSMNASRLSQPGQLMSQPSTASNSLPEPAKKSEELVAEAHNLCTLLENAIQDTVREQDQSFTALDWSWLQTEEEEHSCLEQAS

[11] = biological target: Fibroblast growth factor receptor 3 (Homo sapiens) (UniProt P22607); test: Inhibition of human FGFR3 catalytic domain expressed in baculovirus assessed as substrate phosphorylation using fluorescence-labelled peptides as substrate at 420 uM after 90 mins by microfluidic peptide phosphorylation assay
Sequence of Fibroblast growth factor receptor 3 (Homo sapiens) (P22607 23-806 limits assumed): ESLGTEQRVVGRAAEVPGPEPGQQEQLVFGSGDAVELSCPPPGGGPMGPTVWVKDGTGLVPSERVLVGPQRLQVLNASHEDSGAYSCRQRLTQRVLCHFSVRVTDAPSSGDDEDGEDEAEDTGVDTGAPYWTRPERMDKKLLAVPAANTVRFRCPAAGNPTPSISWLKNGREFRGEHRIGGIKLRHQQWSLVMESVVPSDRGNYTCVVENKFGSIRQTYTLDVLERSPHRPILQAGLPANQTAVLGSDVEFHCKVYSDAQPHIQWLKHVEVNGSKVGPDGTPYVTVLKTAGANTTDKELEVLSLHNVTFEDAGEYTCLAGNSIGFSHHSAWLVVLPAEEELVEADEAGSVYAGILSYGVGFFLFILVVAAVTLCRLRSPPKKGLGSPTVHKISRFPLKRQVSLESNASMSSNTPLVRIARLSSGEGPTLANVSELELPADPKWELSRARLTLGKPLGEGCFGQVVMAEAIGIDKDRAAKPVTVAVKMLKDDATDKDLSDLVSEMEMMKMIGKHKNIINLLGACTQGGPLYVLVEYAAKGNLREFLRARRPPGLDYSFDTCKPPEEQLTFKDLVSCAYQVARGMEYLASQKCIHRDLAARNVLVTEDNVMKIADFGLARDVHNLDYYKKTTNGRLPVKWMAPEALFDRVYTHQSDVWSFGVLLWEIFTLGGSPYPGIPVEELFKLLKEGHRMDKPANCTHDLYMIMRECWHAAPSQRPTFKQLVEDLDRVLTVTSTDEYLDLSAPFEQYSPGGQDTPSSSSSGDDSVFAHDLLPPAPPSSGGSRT

Sequence of MAP/microtubule affinity-regulating kinase 3 (Homo sapiens) (P27448 whole entry, looked up): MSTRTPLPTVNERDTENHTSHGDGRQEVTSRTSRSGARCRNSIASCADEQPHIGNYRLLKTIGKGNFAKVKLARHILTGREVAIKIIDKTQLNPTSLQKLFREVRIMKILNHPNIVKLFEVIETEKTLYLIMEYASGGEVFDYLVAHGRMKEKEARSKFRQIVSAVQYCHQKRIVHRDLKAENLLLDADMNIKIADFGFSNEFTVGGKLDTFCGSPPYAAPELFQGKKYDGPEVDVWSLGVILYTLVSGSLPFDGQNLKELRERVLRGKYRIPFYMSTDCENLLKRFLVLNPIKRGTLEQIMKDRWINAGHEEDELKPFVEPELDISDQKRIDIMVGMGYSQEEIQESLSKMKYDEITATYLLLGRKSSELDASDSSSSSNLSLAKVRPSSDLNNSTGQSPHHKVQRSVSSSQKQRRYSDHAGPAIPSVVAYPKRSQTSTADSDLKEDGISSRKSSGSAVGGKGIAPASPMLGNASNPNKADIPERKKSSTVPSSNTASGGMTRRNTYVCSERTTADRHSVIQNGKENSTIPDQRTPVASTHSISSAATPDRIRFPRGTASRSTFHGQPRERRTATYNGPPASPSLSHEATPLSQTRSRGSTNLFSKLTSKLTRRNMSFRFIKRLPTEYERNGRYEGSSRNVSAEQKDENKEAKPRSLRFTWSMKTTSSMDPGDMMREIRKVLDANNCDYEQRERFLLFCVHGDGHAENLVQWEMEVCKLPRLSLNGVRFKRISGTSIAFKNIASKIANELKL
Sequence of Calcium/calmodulin-dependent protein kinase type II subunit gamma (Homo sapiens) (Q13555 whole entry, the tested form may be a part): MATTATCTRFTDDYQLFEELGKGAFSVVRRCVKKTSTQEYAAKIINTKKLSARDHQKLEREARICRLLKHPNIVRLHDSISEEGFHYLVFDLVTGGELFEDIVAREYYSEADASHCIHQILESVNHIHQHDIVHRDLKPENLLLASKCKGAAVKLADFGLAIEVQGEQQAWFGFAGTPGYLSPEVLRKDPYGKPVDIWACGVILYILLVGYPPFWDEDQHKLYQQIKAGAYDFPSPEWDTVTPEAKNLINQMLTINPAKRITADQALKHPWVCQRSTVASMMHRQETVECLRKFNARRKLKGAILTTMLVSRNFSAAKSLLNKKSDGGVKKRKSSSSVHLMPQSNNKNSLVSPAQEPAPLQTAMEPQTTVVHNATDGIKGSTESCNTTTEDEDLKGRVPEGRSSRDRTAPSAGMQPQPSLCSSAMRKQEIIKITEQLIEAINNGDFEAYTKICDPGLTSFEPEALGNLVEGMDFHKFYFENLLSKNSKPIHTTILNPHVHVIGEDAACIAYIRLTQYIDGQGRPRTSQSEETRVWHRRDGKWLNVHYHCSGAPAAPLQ
Sequence of Calcium/calmodulin-dependent protein kinase type II subunit beta (Homo sapiens) (Q13554 whole entry, the tested form may be a part): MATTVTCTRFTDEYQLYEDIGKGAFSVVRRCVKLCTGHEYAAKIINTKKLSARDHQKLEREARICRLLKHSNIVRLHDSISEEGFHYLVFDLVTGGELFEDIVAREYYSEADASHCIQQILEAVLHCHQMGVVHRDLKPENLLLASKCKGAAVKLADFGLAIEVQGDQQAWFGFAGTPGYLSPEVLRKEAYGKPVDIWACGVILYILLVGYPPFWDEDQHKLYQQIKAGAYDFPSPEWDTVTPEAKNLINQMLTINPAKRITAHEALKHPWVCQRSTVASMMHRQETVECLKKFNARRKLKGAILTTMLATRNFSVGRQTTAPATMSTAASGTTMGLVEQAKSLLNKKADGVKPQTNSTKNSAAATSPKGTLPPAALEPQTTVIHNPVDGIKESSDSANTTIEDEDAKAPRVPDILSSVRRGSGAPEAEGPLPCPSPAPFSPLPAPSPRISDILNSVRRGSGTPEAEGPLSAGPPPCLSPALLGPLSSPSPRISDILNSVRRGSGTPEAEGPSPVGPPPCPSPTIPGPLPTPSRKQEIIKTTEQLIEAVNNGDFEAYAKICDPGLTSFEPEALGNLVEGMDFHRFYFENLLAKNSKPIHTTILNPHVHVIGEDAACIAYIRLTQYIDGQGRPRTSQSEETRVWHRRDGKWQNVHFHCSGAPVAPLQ
Sequence of Serine/threonine-protein kinase MARK1 (Homo sapiens) (Q9P0L2 whole entry, looked up, the tested form may be a part): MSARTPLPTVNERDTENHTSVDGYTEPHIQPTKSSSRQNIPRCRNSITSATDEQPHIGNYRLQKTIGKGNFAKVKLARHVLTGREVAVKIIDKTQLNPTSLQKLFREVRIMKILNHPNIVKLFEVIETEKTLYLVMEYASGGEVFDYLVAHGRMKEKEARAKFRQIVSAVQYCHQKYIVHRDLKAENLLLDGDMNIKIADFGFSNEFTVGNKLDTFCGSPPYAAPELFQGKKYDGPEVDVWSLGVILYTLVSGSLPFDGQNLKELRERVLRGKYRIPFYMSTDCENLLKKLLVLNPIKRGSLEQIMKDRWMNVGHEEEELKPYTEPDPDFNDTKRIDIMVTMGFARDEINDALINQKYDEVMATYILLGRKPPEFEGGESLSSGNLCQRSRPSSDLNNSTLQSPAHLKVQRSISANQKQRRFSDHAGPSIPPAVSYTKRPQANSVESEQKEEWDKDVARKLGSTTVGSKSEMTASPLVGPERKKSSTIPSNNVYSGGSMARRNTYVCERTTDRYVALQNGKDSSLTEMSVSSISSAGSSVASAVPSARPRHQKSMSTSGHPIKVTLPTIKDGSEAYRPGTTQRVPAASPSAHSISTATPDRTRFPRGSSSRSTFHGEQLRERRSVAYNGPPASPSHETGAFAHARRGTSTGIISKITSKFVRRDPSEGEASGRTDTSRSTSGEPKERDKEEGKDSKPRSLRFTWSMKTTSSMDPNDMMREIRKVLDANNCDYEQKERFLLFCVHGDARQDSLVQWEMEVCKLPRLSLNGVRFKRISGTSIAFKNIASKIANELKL

## NCC1CCN(c2ncnc3[nH]ccc23)CC1
[1]
  inhibition: 3%

## NC1(Cc2ccc(Cl)cc2)CCN(c2ncnc3[nH]ccc23)CC1
[2]
  inhibition: 9%
[3]
  inhibition: 0%

## NCC1CN(c2ncnc3[nH]c4cnccc4c23)CCO1 (stereo unspecified)
[4]
  inhibition: 4%
[5]
  inhibition: 23.5%

## NCCc1ccc(-c2ncnc3[nH]cnc23)cc1
[6]
  inhibition: 97%

## c1cnc2[nH]ccc2c1
[7]
  inhibition: 51.5%
[8]
  inhibition: 64%

## CNCc1ccc(-c2ncnc3[nH]cnc23)cc1
[9]
  inhibition: 16%
[10]
  inhibition: 90.5%

## c1nc(N2CCOCC2)c2nc[nH]c2n1
[11]
  inhibition: 95%
